According to the supplement of paper PMC10307832:

compound: CCOC(=O)CCNc1cc(N2CCc3ccccc3CC2)nc(-c2ccccn2)n1 [GSK-J4]; experiment: relative viability (nuclei count vs DMSO), 5 days (fraction); higher = more cells survive; conditions: 0.5 µM
Summary of the method: (§1)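 Lung cancer cell lines in 1536-well plates were exposed by pinning to five library-drug doses (not always all listed) √10 apart, following an overnight hold at 37 °C. MetaXpress counted Hoechst-stained nuclei from 4× images taken after 5 days without medium change. Viability is the median ratio of treated-well to vehicle-well nuclei across plates. Plates required control CV below 25% and at least one doubling.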

Row | Cell Line | relative viability
1 | NCI-H2087 | 0.96
2 | HCC-366 | 1.03
3 | NCI-H1793 | 1.06
4 | RERF-LC-KJ | 0.887
5 | EMC-BAC-2 | 0.971
6 | LCLC-97TM1 | 0.865
7 | NCI-H1651 | 0.986
8 | NCI-H2170 | 1
9 | NCI-H2009 | 0.951
10 | ABC-1 | 1.04
11 | SK-MES-1 | 0.965
12 | NCI-H727 | 0.863
13 | SW 1573 | 0.926

same assay, conditions: 1.581 µM

Row | Cell Line | relative viability
14 | NCI-H1650 | 0.791
15 | NCI-H1915 | 0.856
16 | NCI-H2087 | 0.824
17 | HCC-366 | 0.851
18 | NCI-H1793 | 0.786
19 | RERF-LC-KJ | 0.853
20 | EMC-BAC-2 | 0.909
21 | LCLC-97TM1 | 0.753
22 | NCI-H1651 | 0.856
23 | NCI-H2170 | 0.89
24 | NCI-H2009 | 0.89
25 | ABC-1 | 0.869
26 | SK-MES-1 | 0.937
27 | NCI-H727 | 0.754
28 | SW 1573 | 0.96

same assay, conditions: 5 µM

Row | Cell Line | relative viability
29 | NCI-H1650 | 0.889
30 | NCI-H2087 | 0.82
31 | NCI-H1793 | 0.727
32 | RERF-LC-KJ | 0.943
33 | EMC-BAC-2 | 0.647
34 | LCLC-97TM1 | 1.05
35 | NCI-H1651 | 0.973
36 | NCI-H2170 | 0.893
37 | NCI-H2009 | 0.733
38 | ABC-1 | 0.803
39 | SK-MES-1 | 0.932
40 | NCI-H727 | 1.11
41 | SW 1573 | 0.851

same assay, conditions: 15.81 µM

Row | Cell Line | relative viability
42 | NCI-H1650 | 0.808
43 | NCI-H1915 | 0.969
44 | NCI-H2087 | 1.04
45 | HCC-366 | 0.988
46 | NCI-H1793 | 0.48
47 | RERF-LC-KJ | 0.908
48 | EMC-BAC-2 | 0.882
49 | LCLC-97TM1 | 0.608
50 | NCI-H1651 | 0.948
51 | NCI-H2170 | 0.916
52 | NCI-H2009 | 0.966
53 | ABC-1 | 0.797
54 | SK-MES-1 | 0.928
55 | NCI-H727 | 0.85
56 | SW 1573 | 0.949

same assay, conditions: 50 µM

Row | Cell Line | relative viability
57 | NCI-H1650 | 0.682
58 | NCI-H1915 | 1.12
59 | NCI-H2087 | 0.856
60 | HCC-366 | 0.989
61 | NCI-H1793 | 0.443
62 | RERF-LC-KJ | 0.826
63 | EMC-BAC-2 | 0.955
64 | LCLC-97TM1 | 0.755
65 | NCI-H1651 | 0.96
66 | NCI-H2170 | 0.969
67 | NCI-H2009 | 0.545
68 | ABC-1 | 0.403
69 | SK-MES-1 | 0.783
70 | NCI-H727 | 0.468
71 | SW 1573 | 0.756

compound: CN1CCC(CC1)OC2=CC(=C(C=C2)NC3=NC=C4C(=N3)N(C(=O)N4C)C5CCCC5)OC [AZ3146]; experiment: as above; conditions: 0.08 µM
Summary of the method: as §1

Row | Cell Line | relative viability
72 | NCI-H1650 | 0.966
73 | NCI-H1915 | 0.9
74 | NCI-H2087 | 0.877
75 | HCC-366 | 0.9
76 | NCI-H1793 | 0.902
77 | RERF-LC-KJ | 0.944
78 | EMC-BAC-2 | 0.772
79 | LCLC-97TM1 | 0.836
80 | NCI-H1651 | 0.902
81 | NCI-H2170 | 0.959
82 | NCI-H2009 | 0.928
83 | ABC-1 | 0.892
84 | SK-MES-1 | 1
85 | NCI-H727 | 0.838
86 | SW 1573 | 0.994

same assay, conditions: 0.253 µM

Row | Cell Line | relative viability
87 | NCI-H1650 | 0.873
88 | NCI-H1915 | 1.04
89 | NCI-H2087 | 1.08
90 | HCC-366 | 0.939
91 | NCI-H1793 | 0.805
92 | RERF-LC-KJ | 1.01
93 | EMC-BAC-2 | 0.76
94 | LCLC-97TM1 | 1.01
95 | NCI-H1651 | 0.879
96 | NCI-H2170 | 0.991
97 | NCI-H2009 | 0.997
98 | ABC-1 | 0.901
99 | SK-MES-1 | 0.985
100 | NCI-H727 | 1.08
101 | SW 1573 | 1.04

same assay, conditions: 0.8 µM

Row | Cell Line | relative viability
102 | NCI-H1650 | 0.812
103 | NCI-H1915 | 1.07
104 | NCI-H2087 | 1.03
105 | HCC-366 | 1.02
106 | NCI-H1793 | 0.812
107 | RERF-LC-KJ | 0.974
108 | EMC-BAC-2 | 1.07
109 | LCLC-97TM1 | 0.932
110 | NCI-H1651 | 0.968
111 | NCI-H2170 | 0.994
112 | NCI-H2009 | 1.03
113 | ABC-1 | 1.02
114 | SK-MES-1 | 1.07
115 | NCI-H727 | 0.838
116 | SW 1573 | 0.991

same assay, conditions: 2.53 µM

Row | Cell Line | relative viability
117 | NCI-H1650 | 0.864
118 | NCI-H1915 | 1.03
119 | NCI-H2087 | 1.2
120 | HCC-366 | 0.973
121 | NCI-H1793 | 1.07
122 | RERF-LC-KJ | 1.05
123 | EMC-BAC-2 | 1.1
124 | LCLC-97TM1 | 1.1
125 | NCI-H1651 | 0.952
126 | NCI-H2170 | 1.01
127 | NCI-H2009 | 1.02
128 | ABC-1 | 1.02
129 | SK-MES-1 | 0.991
130 | NCI-H727 | 1.21
131 | SW 1573 | 0.959

same assay, conditions: 8 µM

Row | Cell Line | relative viability
132 | NCI-H1650 | 0.652
133 | NCI-H1915 | 0.991
134 | NCI-H2087 | 0.917
135 | HCC-366 | 0.988
136 | NCI-H1793 | 0.691
137 | RERF-LC-KJ | 0.716
138 | EMC-BAC-2 | 0.907
139 | LCLC-97TM1 | 0.751
140 | NCI-H1651 | 1.02
141 | NCI-H2170 | 0.96
142 | NCI-H2009 | 0.713
143 | ABC-1 | 0.867
144 | SK-MES-1 | 0.95
145 | NCI-H727 | 0.74
146 | SW 1573 | 0.68
